# Experimental data published in patent publication US9884874B2, “Bromodomain-inhibiting compounds and pharmaceutical composition comprising same for preventing or treating a cancer” (KAINOS MEDICINE, INC., priority 2014, dated 2018).
# Tests used:
# [1] = test system: MV4-11 (human leukemia cell line); test: Anti-proliferative activity test (CellTiter-Glo), MV4-11; assay type: cell-based; conditions: second value of LnCAP/MV4-11 cell, read-out: Cell proliferation IC50 (MV4-11)
# Description: IC50 (uM) of the compounds obtained in Examples 1 to 18 against hematological cancer cells and solid tumors was measured for identifying anti-proliferative activities.
# A human prostatic adenocarcinoma cell line, LnCAP (ATCC®, CRL-1740) and human leukemia cell line MV4-11 (ATCC®, CRL-9591) were used to test the degrees of the compounds 1 to 18 in inhibiting the cancer cell growth. The testing cell concentration was adjusted to 6.7×10^3 cells/ml with a culture medium supplemented with 10% FBS, in the temperature of 37° C., 5% CO2 and 95% humidity. Culture media and FBS were purchased from GIBCO. 90 μL of cell suspensions thus obtained was added to two 96-well plates with the final cell density of 600 cells/well, followed by addition of 10 μL of culture medium to each well of plate. The plates were incubated overnight in a humidified incubator at 37° C. with 5% CO2.
# Compounds 1 to 18 were each dissolved with dimethylsulfoxide (DMSO) or phosphate buffer solution (PBS) as a stock solution, and 200× solutions of test compound (2 mM) using DMSO were prepared. Then, the DMSO solution thus obtained was diluted 20-fold with culture medium or PBS to obtain 10× working solution. 10 μL of 10× working solution (drug solution) was dispensed to each well (triplicate for each concentration). The final concentration of DMSO in culture medium was 0.5% [v/v].
# Cell viability was determined using CellTiter-Glo® (CTG) assay. 100 μL of CellTiter-Glo® was added to the equal volume of the cultured cells to read luminescence in EnVision Multi Label Reader.
# SK-LU-1 (adenocarcinoma) = test: Anti-proliferative activity, SK-LU-1; assay type: cell-based; conditions: Homo sapiens, SKLU-1 (Adenocarcinoma), read-out: Cell proliferation, IC50
# [2] = Pharmacokinetics in Sprague Dawley rats; assay type: in vivo, Sprague Dawley (SD) rats; conditions: plasma, rat
# Description: For serum compound analysis, blood samples were collected by cardiac puncture over 24 hr time course. 20 μL of spiked plasma was added into a 96-well plate, adding ten volumes of internal standard (IS) in acetonitrile (ACN) to the obtained precipitated protein mixed thoroughly, centrifuged at 4,000 rpm for 10 min. 150 μL of supernatant thus obtained was transferred to another pre-labeled 96-well plate, mixed with 150 μL of water. 5 μL or 10 μL of the mixture was injected into the LC-MS system under the following conditions:
# Column: API-4000+Waters UPLC (TCLM08);
# Lower limit of quantification (LLOQ) was at 1 ng/mL. Pharmacokinetic parameters of half-life (T1/2), clearance (CL), maximum plasma concentration (Cmax), mean residence time (MRT) and bioavailability (F %), plasma exposure (AUC) of the compound were calculated using Phoenix WinNonlin 6.3 (non-compartmental model).
# Also, pharmacokinetics of compound 1 was evaluated in Sprague Dawley (SD) rats following IV administration at 3 mg/kg or 10 mg/kg dose level, and PO administration at 3 mg/kg or 10 mg/kg dose level, respectively.
structure (smiles),measurement,setting,value
"COc1ccc2c(c1)C(c1ccc(Cl)cc1)=N[C@@H](COS(C)(=O)=O)c1nnc(C)n1-2 [Compound 1, (R)-(6-(4-chlorophenyl)-8-methoxy-1-methyl-4H-benzo[f]-[1,2,4]triazolo[4,3-a][1,4]diazepin-4-yl)methyl methanesulfonate]",IC50,[1],0.31 µM
same,IC50,SK-LU-1 (adenocarcinoma),6.96 µM
same,AUC,"[2]; IV, 3 mg/kg",2 µM·h
same,clearance,"[2]; IV, 3 mg/kg",54.8 mL/min/kg
same,AUC,"[2]; IV, 10 mg/kg",15.4 µM·h
same,MRT,"[2]; IV, 10 mg/kg",1.86 h
same,clearance,"[2]; IV, 10 mg/kg",24.9 mL/min/kg
same,AUC,"[2]; PO, 3 mg/kg",1 µM·h
same,bioavailability,"[2]; PO, 3 mg/kg",50.6%
same,AUC,"[2]; PO, 10 mg/kg",13.6 µM·h
same,bioavailability,"[2]; PO, 10 mg/kg",88.6%
